Results taken from patent publication US20190223443A1, “Methods to Increase Corn Growth” (Valent BioSciences LLC, priority 2015, published 2019).

System: corn hybrid B73 X Mo17
Assay: Greenhouse study Long Grove, Ill., sprayed at V1-V2, change in height and synergy (Example 7)
Format: in vivo
Conditions: for Change in height from day of treatment, 2 days post treatment: control 9.74; for Change in height from day of treatment, 4 days post treatment: control 22.59; for Change in height from day of treatment, 6 days post treatment: control 43.03
Experimental: A greenhouse study was conducted at Long Grove, Ill. Seeds of the corn hybrid B73 X Mo17 was sown into potted soil on May 7, 2014. Plants were sprayed at 11 days post sowing (V1-V2) with solutions containing a non-ionic surfactant (0.25%, v/v) and growth was followed for 6 days. GA3 refers to gibberellic acid and ABA refers to abscisic acid. Results of the study described in 3. above can be seen in the following tables describing change in height in centimeters from day of treatment (Table 8) and change in height in centimeters from day of treatment compared to control (Table 9).
Synergy is calculated as follows: […]
Observed difference in height from control/Expected difference in height from control, where expected difference in height from control is the sum of the observed difference in height of each active ingredient applied alone. If the ratio between the experimentally observed efficacy of the mixture and the expected efficacy of the mixture is greater than 1, than synergistic interactions are present in the mixture.

CC1=CC(=O)CC(C)(C)[C@@]1(O)/C=C/C(C)=C\C(=O)O [ABA, abscisic acid]
Observed change in height from day of treatment compared to control, 2 days post treatment (ABA 8.6 ppm alone): −0.17 cm | Observed change in height from day of treatment compared to control, 4 days post treatment (ABA 8.6 ppm alone): −0.72 cm | Observed change in height from day of treatment compared to control, 6 days post treatment (ABA 8.6 ppm alone): −1.37 cm | Change in height from day of treatment, 2 days post treatment (ABA 8.6 ppm alone): 9.57 cm | Change in height from day of treatment, 4 days post treatment (ABA 8.6 ppm alone): 21.87 cm | Change in height from day of treatment, 6 days post treatment (ABA 8.6 ppm alone): 41.66 cm | Observed change in height from day of treatment compared to control, 2 days post treatment (ABA 10 ppm alone): −0.11 cm | Observed change in height from day of treatment compared to control, 4 days post treatment (ABA 10 ppm alone): −0.15 cm | Observed change in height from day of treatment compared to control, 6 days post treatment (ABA 10 ppm alone): −0.33 cm | Change in height from day of treatment, 2 days post treatment (ABA 10 ppm alone): 9.63 cm | Change in height from day of treatment, 4 days post treatment (ABA 10 ppm alone): 22.44 cm | Change in height from day of treatment, 6 days post treatment (ABA 10 ppm alone): 42.70 cm | Observed change in height from day of treatment compared to control, 2 days post treatment (ABA 12 ppm alone): 0.75 cm | Observed change in height from day of treatment compared to control, 4 days post treatment (ABA 12 ppm alone): −0.49 cm | Observed change in height from day of treatment compared to control, 6 days post treatment (ABA 12 ppm alone): 0 cm | Change in height from day of treatment, 2 days post treatment (ABA 12 ppm alone): 10.49 cm | Change in height from day of treatment, 4 days post treatment (ABA 12 ppm alone): 22.10 cm | Change in height from day of treatment, 6 days post treatment (ABA 12 ppm alone): 43.03 cm | Height of the corn compared to the control (in words) (applied alone, at both 4 and 6 days post treatment): either did not increase or decreased the height
